Data as given in PMC9207808 (ACS Chemical Biology, 2022).
Residues, ends and D or L forms follow the SMILES beside them.

Assays:
[1] = test system: DocSTm; experiment: Differential scanning fluorimetry (thermal stabilisation of Doc); type: binding, S. Typhimurium; conditions: for melting temperature shift ΔTm: DSF, DocSTm 5 μM, analyte 50 μM, Tm with analyte minus Tm of free DocSTm (42.9 ± 0.9 °C), SYPRO Orange, 20 mM K2HPO4, 50 mM (NH4)2SO4, pH 8.0, triplicate; for Average Tm / Tm: DocSTm 5 µM + 50 µM binder; for Average Tm: average of 3 replicates
Experimental: Experiments were performed in a Mx3005P qPCR System (Agilent) collecting fluorescence data with a temperature ramp of 25 to 95 °C. Samples were prepared in a buffer containing 20 mM K2HPO4 and 50 mM (NH4)2SO4 at pH 8.0. The SYPRO Orange dye (Sigma-Aldrich, 5000× stock in DMSO) was used to monitor protein denaturation and was diluted to a final concentration of 3×. For binding experiments, the final concentration of Doc was 5 μM. Each condition was performed in triplicate (ESI section 4) and the melting curves were plotted using GraphPad Prism 5 (GraphPad Software, U.S.A.). The melting temperatures were obtained by fitting the sigmoidal section of the curves to a Boltzmann sigmoid function.

[2] = molecular target: DocSTm; experiment: Surface plasmon resonance binding to immobilised Doc; parameters: species or system S. Typhimurium; conditions: for koff × 10^-6 / kon × 10^6: 1:1 kinetic fit, mean ± SD of at least 3 replicates; for kon × 10^6: single-cycle kinetics (multicycle for PhdSTm1-73); for Half-life of the complex: t1/2 = ln2 / koff
Experimental: Experiments were performed in a Biacore S200 (Cytiva) with a Series S sensor chip NTA (Cytiva). The data was analyzed using the Biacore Evaluation Software (Cytiva) and curves were plotted using GraphPad Prism 5 (GraphPad Software, U.S.A.). All experiments were performed at 22 °C with a running buffer containing 10 mM HEPES, 500 mM NaCl, 50 μM EDTA, and 0.005% (v/v) TWEEN 20 at pH 8.0. The surface was conditioned following the standard manufacturer’s guidelines and protein immobilization was performed with a 30–60 s pulse (flow rate of 5 μL/min) of Doc (150 nM) in running buffer. […] Surface regeneration was performed with a 1 min pulse of 0.5 M imidazole followed by a 1 min pulse of 0.35 M of EDTA at pH 8.0.
Binding to Doc was performed using a multicycle kinetics (MCK) setup for peptides 7, 10, and 14, while the remaining samples were tested using a single-cycle kinetics (SCK) setup. The surface was fully regenerated in between each analyte in both cases. In the MCK experiments, increasing concentrations of each analyte were injected with an 80 s pulse (30 μL/min) and dissociation times varied depending on the time required to fully dissociate the complex. The double-referenced sensorgrams (raw data subtracted from a blank injection and reference surface responses) were analyzed using a kinetic and/or a steady-state 1:1 binding model. In the SCK experiments, typically six concentrations of each analyte were sequentially injected with 80 s pulses (30 μL/min), and dissociation times varied depending on the time required to dissociate at least 5% of the complex. The double-referenced sensorgrams were fitted using a kinetic 1:1 binding model.
At least three independent replicates were measured for each analyte (ESI section 5). When a steady-state fit was applied, the reported Kd and its uncertainty correspond, respectively, to the average and standard deviations of the Kd obtained in each measurement. When a kinetic fit was applied, the reported rate constants (kon and koff) and their uncertainties correspond, respectively, to the average and standard deviations of the rate constants obtained in each measurement. In this case, reported Kd were calculated using the equation below, and the standard deviation of the rate constants was propagated. [drawing 1]

[3] = SPR, kinetic fit, KD calculated from mean koff and kon, SD propagated, 22 °C, pH 8.0

SMILES	melting temperature shift ΔTm [1]	Average Tm [1]	Tm ([1]; replicate 1)	Tm ([1]; replicate 2)	Tm ([1]; replicate 3)	Kd ([2]; SPR kinetic fit, replicate 1)	Kd ([2]; SPR kinetic fit, replicate 2)	Kd ([2]; SPR kinetic fit, replicate 3)	koff × 10^-6 ([2]; SPR, 22 °C, pH 8.0)	kon × 10^6 ([2]; SPR, 22 °C, pH 8.0)	Kd [2, 3]	Half-life of the complex [2]	Kd ([2]; SPR kinetic fit, replicate 4)
CC[C@H](C)[C@H](NC(=O)[C@H](C)NC(=O)[C@H](C)NC(=O)[C@H](Cc1ccccc1)NC(=O)[C@H](CCC(=O)O)NC(=O)[C@H](CC(=O)O)NC(=O)[C@H](CC(=O)O)NC(=O)[C@H](CCSC)NC(=O)[C@H](Cc1c[nH]c2ccccc12)NC(C)=O)C(=O)N[C@@H](CCSC)C(=O)N[C@@H](C)C(=O)N[C@H](C(=O)N[C@@H](Cc1c[nH]cn1)C(=O)NCC(=O)N[C@@H](CC(N)=O)C(=O)N[C@@H](CCC(=O)O)C(=O)N[C@@H](CC(C)C)C(=O)N[C@@H](C)C(=O)N[C@@H](CCC(=O)O)C(=O)N[C@@H](CC(C)C)C(=O)N[C@@H](C)C(=O)N[C@@H](CC(=O)O)C(=O)N[C@@H](CCCCN)C(=O)O)C(C)C [peptide 15] (Ac-WMDDEFAAIMAVHGNELAELADK-OH; C-terminus assumed)	27.7 ± 0.9 °C	70.6 ± 0.1 °C	70.6 °C	70.7 °C	70.4 °C	0.124 nM	0.106 nM	0.112 nM	185 ± 52 ×10^-6 s-1	1.602 ± 0.332 ×10^6 M-1 s-1	0.115 ± 0.04 nM	1.0 ± 0.3 h	
CC[C@H](C)[C@H](NC(=O)[C@H](C)NC(=O)[C@H](C)NC(=O)[C@H](Cc1ccccc1)NC(=O)[C@H](CCC(=O)O)NC(=O)[C@H](CC(=O)O)NC(=O)[C@H](CC(=O)O)NC(=O)[C@H](CCSC)NC(=O)[C@H](Cc1c[nH]c2ccccc12)NC(C)=O)C(=O)N[C@@H](CCSC)C(=O)N[C@@H](C)C(=O)N[C@H](C(=O)N[C@@H](Cc1c[nH]cn1)C(=O)NCC(=O)N[C@@H](CC(N)=O)C(=O)N[C@@H](CCC(=O)O)C(=O)N[C@@H](CC(C)C)C(=O)N[C@@H](CCCNC(=N)N)C(=O)N[C@@H](CCC(=O)O)C(=O)N[C@@H](CC(C)C)C(=O)N[C@@H](C)C(=O)N[C@@H](C)C(=O)N[C@@H](CCCCN)C(=O)O)C(C)C [peptide 18] (Ac-WMDDEFAAIMAVHGNELRELAAK-OH; C-terminus assumed)	28.0 ± 0.9 °C	70.9 ± 0.3 °C	71.1 °C	71.0 °C	70.6 °C	0.0532 nM	0.0189 nM	0.0385 nM	84 ± 33 ×10^-6 s-1	2.508 ± 0.964 ×10^6 M-1 s-1	0.033 ± 0.018 nM	2.3 ± 0.9 h	
CC[C@H](C)[C@H](NC(=O)[C@H](C)NC(=O)[C@H](C)NC(=O)[C@H](Cc1ccccc1)NC(=O)[C@H](CCC(=O)O)NC(=O)[C@H](CC(=O)O)NC(=O)[C@H](CC(=O)O)NC(=O)[C@H](CCSC)NC(=O)[C@H](Cc1c[nH]c2ccccc12)NC(C)=O)C(=O)N[C@@H](CCSC)C(=O)N[C@@H](C)C(=O)N[C@H](C(=O)N[C@@H](Cc1c[nH]cn1)C(=O)NCC(=O)N[C@@H](CC(N)=O)C(=O)N[C@@H](CCC(=O)O)C(=O)N[C@@H](CC(C)C)C(=O)N[C@@H](CCCNC(=N)N)C(=O)N[C@@H](C)C(=O)N[C@@H](CC(C)C)C(=O)N[C@@H](C)C(=O)N[C@@H](CC(=O)O)C(=O)N[C@@H](CCCCN)C(=O)O)C(C)C [peptide 16] (Ac-WMDDEFAAIMAVHGNELRALADK-OH; C-terminus assumed)	30.7 ± 0.9 °C	73.6 ± 0.2 °C	73.5 °C	73.5 °C	73.9 °C	0.0687 nM	0.0703 nM	0.0518 nM	136 ± 41 ×10^-6 s-1	2.101 ± 0.333 ×10^6 M-1 s-1	0.065 ± 0.022 nM	1.4 ± 0.4 h	
CC[C@H](C)[C@H](NC(=O)[C@H](C)NC(=O)[C@H](C)NC(=O)[C@H](Cc1ccccc1)NC(=O)[C@H](CCC(=O)O)NC(=O)[C@H](CC(=O)O)NC(=O)[C@H](CC(=O)O)NC(=O)[C@H](CCSC)NC(=O)[C@H](Cc1c[nH]c2ccccc12)NC(C)=O)C(=O)N[C@@H](CCSC)C(=O)N[C@@H](C)C(=O)N[C@H](C(=O)N[C@@H](Cc1c[nH]cn1)C(=O)NCC(=O)N[C@@H](C)C(=O)N[C@@H](CCC(=O)O)C(=O)N[C@@H](CC(C)C)C(=O)N[C@@H](CCCNC(=N)N)C(=O)N[C@@H](CCC(=O)O)C(=O)N[C@@H](CC(C)C)C(=O)N[C@@H](C)C(=O)N[C@@H](CC(=O)O)C(=O)N[C@@H](CCCCN)C(=O)O)C(C)C [peptide 12] (Ac-WMDDEFAAIMAVHGAELRELADK-OH; C-terminus assumed)	28.2 ± 1.2 °C	71.1 ± 0.7 °C	71.8 °C	71.0 °C	70.4 °C	0.251 nM	0.166 nM	0.0853 nM	203 ± 103 ×10^-6 s-1	1.396 ± 0.154 ×10^6 M-1 s-1	0.145 ± 0.076 nM	1.0 ± 0.5 h	0.0833 nM
CC[C@H](C)[C@H](NC(=O)[C@H](C)NC(=O)[C@H](C)NC(=O)[C@H](Cc1ccccc1)NC(=O)[C@H](CCC(=O)O)NC(=O)[C@H](CC(=O)O)NC(=O)[C@H](CC(=O)O)NC(=O)[C@H](C)NC(=O)[C@H](Cc1c[nH]c2ccccc12)NC(C)=O)C(=O)N[C@@H](CCSC)C(=O)N[C@@H](C)C(=O)N[C@H](C(=O)N[C@@H](Cc1c[nH]cn1)C(=O)NCC(=O)N[C@@H](CC(N)=O)C(=O)N[C@@H](CCC(=O)O)C(=O)N[C@@H](CC(C)C)C(=O)N[C@@H](CCCNC(=N)N)C(=O)N[C@@H](CCC(=O)O)C(=O)N[C@@H](CC(C)C)C(=O)N[C@@H](C)C(=O)N[C@@H](CC(=O)O)C(=O)N[C@@H](CCCCN)C(=O)O)C(C)C [peptide 2] (Ac-WADDEFAAIMAVHGNELRELADK-OH; C-terminus assumed)	28.0 ± 1.0 °C	70.9 ± 0.4 °C	71.3 °C	70.8 °C	70.6 °C	0.0523 nM	0.0478 nM	0.0551 nM	59 ± 11 ×10^-6 s-1	1.136 ± 0.140 ×10^6 M-1 s-1	0.052 ± 0.012 nM	3.3 ± 0.6 h	
CC[C@H](C)[C@H](NC(=O)[C@H](C)NC(=O)[C@H](C)NC(=O)[C@H](Cc1ccccc1)NC(=O)[C@H](CCC(=O)O)NC(=O)[C@H](CC(=O)O)NC(=O)[C@H](CC(=O)O)NC(=O)[C@H](CCSC)NC(=O)[C@H](Cc1c[nH]c2ccccc12)NC(C)=O)C(=O)N[C@@H](CCSC)C(=O)N[C@@H](C)C(=O)N[C@@H](C)C(=O)N[C@@H](Cc1c[nH]cn1)C(=O)NCC(=O)N[C@@H](CC(N)=O)C(=O)N[C@@H](CCC(=O)O)C(=O)N[C@@H](CC(C)C)C(=O)N[C@@H](CCCNC(=N)N)C(=O)N[C@@H](CCC(=O)O)C(=O)N[C@@H](CC(C)C)C(=O)N[C@@H](C)C(=O)N[C@@H](CC(=O)O)C(=O)N[C@@H](CCCCN)C(=O)O [peptide 9] (Ac-WMDDEFAAIMAAHGNELRELADK-OH; C-terminus assumed)	24.6 ± 1.2 °C	67.5 ± 0.7 °C	68.3 °C	67.4 °C	66.9 °C	0.183 nM	0.239 nM	0.132 nM	388 ± 57 ×10^-6 s-1	2.266 ± 0.942 ×10^6 M-1 s-1	0.171 ± 0.076 nM	0.50 ± 0.07 h	
